Measured values published in article PMC9005681, “Use of AD Informer Set compounds to explore validity of novel targets in Alzheimer's disease pathology” (Alzheimer's & Dementia : Translational Research & Clinical …, 2022).
Several values for one entry are separate records, joined by “and”; a condition that tells them apart may be missing. Equal entries are not always repeated.

Legend:
Assay in all cases: PDSP GPCR panel primary binding assays at 10 μM
[1] = molecular target: T1, cloned human or rodent CNS receptors, channels, and transporters (PDSP panel) (Homo sapiens, UniProt P08172); settings: Receptor M2, primary assay, 10 μM; for Mean %: mean of Inhibition 1-4
T1 construct: expressed in transfected cells
T1 sequence (P08172 1-466): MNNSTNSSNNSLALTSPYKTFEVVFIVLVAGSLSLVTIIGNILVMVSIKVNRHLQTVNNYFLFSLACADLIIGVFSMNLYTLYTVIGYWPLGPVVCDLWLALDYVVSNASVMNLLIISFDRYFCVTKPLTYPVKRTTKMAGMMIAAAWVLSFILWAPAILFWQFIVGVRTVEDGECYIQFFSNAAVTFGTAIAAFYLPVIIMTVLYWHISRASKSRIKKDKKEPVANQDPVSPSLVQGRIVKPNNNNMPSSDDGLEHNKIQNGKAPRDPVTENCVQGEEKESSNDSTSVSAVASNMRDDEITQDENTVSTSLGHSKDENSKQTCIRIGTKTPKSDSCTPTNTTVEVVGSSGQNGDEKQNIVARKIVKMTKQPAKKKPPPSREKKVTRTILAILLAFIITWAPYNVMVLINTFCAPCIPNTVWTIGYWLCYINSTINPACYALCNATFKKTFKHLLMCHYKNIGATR
Outline: (§1)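 Competition binding with radiolabeled standard ligands, single 10 μM concentration, four replicates. Targets showing over 50% displacement were followed up with 11-point titrations in triplicate.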

[2] = molecular target: T2, cloned human or rodent CNS receptors, channels, and transporters (PDSP panel) (Homo sapiens, UniProt P21728); settings: Receptor D1, primary assay, 10 μM; for Mean %: mean of Inhibition 1-4
T2 construct: expressed in transfected cells
Outline: as §1

[3] = molecular target: T3, cloned human or rodent CNS receptors, channels, and transporters (PDSP panel) (Homo sapiens, UniProt P21917); settings: Receptor D4, primary assay, 10 μM; for Mean %: mean of Inhibition 1-4
T3 construct: expressed in transfected cells
T3 sequence (P21917 1-419): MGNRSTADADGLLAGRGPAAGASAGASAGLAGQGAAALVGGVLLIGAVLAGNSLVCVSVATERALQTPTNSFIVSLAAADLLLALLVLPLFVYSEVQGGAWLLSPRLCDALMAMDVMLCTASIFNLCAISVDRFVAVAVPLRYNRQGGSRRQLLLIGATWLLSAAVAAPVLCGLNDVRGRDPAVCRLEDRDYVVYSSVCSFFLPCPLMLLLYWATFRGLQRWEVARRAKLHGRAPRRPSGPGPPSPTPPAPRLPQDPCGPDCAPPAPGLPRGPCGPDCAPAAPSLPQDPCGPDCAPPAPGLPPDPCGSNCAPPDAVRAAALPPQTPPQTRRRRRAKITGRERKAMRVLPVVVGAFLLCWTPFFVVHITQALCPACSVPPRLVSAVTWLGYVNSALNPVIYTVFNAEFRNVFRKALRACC
Outline: as §1

[4] = molecular target: T4, cloned human or rodent CNS receptors, channels, and transporters (PDSP panel) (Homo sapiens, UniProt P23975); settings: Receptor NET, primary assay, 10 μM; for Mean %: mean of Inhibition 1-4
T4 construct: expressed in transfected cells
Outline: as §1

[5] = molecular target: T5, cloned human or rodent CNS receptors, channels, and transporters (PDSP panel) (Homo sapiens, UniProt P28223); settings: Receptor 5-HT2A, primary assay, 10 μM; for Mean %: mean of Inhibition 1-4
T5 construct: expressed in transfected cells
Outline: as §1

[6] = molecular target: T6, cloned human or rodent CNS receptors, channels, and transporters (PDSP panel) (Homo sapiens, UniProt P46098); settings: Receptor 5-HT3, primary assay, 10 μM; for Mean %: mean of Inhibition 1-4
T6 construct: expressed in transfected cells
T6 sequence (P46098 24-478): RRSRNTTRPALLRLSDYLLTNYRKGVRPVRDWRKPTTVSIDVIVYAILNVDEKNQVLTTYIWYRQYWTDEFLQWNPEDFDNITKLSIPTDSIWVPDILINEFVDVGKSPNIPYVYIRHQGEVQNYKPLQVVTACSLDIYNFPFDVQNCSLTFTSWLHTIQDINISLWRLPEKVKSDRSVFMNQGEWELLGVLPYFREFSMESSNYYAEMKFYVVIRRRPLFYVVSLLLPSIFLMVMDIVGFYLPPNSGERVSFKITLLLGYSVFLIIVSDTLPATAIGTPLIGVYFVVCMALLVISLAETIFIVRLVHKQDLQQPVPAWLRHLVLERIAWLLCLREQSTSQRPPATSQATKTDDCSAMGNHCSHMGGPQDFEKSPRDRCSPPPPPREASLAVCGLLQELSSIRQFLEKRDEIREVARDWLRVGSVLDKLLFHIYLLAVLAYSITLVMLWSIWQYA
Outline: as §1

[7] = molecular target: T7, cloned human or rodent CNS receptors, channels, and transporters (PDSP panel) (Homo sapiens, UniProt P50406); settings: Receptor 5-HT6, primary assay, 10 μM; for Mean %: mean of Inhibition 1-4
T7 construct: expressed in transfected cells
Outline: as §1

T7 sequence (P50406 whole entry): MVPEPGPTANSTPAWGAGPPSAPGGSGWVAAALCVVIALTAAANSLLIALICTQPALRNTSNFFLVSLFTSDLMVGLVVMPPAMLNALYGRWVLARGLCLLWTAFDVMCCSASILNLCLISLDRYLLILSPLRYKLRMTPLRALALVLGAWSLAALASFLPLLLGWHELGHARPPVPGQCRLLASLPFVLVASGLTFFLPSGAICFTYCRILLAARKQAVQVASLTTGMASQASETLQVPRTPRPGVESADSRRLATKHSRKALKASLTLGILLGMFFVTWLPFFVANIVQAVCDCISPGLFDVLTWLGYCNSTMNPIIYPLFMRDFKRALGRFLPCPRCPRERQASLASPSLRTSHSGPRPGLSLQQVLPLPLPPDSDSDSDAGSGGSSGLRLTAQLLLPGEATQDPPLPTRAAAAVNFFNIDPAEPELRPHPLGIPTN
T4 sequence (P23975 whole entry): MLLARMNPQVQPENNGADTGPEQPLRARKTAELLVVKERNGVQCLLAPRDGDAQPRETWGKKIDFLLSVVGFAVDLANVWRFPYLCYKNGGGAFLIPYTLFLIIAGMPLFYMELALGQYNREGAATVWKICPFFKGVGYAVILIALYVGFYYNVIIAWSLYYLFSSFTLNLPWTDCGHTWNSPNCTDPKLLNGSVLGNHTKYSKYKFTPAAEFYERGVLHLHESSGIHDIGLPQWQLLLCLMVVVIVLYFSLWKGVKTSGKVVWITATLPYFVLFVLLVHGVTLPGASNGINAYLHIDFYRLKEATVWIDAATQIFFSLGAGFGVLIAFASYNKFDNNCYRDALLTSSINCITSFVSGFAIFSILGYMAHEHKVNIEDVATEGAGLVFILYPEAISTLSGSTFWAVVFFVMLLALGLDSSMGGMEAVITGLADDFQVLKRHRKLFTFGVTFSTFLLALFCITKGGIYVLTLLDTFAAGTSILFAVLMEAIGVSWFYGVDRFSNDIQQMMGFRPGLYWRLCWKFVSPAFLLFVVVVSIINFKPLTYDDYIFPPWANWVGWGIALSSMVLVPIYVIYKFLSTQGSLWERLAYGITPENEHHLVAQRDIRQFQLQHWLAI
T5 sequence (P28223 whole entry): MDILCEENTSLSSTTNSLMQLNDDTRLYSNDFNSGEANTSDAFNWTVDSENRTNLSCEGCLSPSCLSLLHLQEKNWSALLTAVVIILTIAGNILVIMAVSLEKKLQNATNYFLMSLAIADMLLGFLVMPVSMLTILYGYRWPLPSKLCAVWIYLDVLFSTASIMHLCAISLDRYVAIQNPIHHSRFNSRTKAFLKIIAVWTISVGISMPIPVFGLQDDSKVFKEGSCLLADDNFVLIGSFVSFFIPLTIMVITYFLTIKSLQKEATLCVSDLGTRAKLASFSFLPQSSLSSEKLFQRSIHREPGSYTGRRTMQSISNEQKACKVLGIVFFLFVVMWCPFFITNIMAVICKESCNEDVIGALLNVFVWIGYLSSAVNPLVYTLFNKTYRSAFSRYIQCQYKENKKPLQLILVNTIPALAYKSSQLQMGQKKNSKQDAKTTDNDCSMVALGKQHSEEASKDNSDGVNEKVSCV
T2 sequence (P21728 whole entry): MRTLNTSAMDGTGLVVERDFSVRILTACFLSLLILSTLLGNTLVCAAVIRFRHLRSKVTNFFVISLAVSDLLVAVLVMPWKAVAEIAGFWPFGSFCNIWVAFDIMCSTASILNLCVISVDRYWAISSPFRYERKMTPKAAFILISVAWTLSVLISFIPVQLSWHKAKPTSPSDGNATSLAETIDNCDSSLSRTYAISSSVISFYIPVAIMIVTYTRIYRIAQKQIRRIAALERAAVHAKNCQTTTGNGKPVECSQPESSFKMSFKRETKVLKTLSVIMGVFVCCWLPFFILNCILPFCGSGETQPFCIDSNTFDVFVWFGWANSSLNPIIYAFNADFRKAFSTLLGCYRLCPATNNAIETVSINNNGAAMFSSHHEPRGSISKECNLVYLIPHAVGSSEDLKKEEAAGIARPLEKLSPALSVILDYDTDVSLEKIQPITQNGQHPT

Structure (SMILES) | Inhibition 1 [1] [%] | Inhibition 2 [1] [%] | Inhibition 3 [1] [%] | Inhibition 4 [1] [%] | Mean % [1] [%] | Inhibition 1 [2] [%] | Inhibition 2 [2] [%] | Inhibition 3 [2] [%] | Inhibition 4 [2] [%] | Mean % [2] [%] | Inhibition 1 [3] [%] | Inhibition 2 [3] [%] | Inhibition 3 [3] [%] | Inhibition 4 [3] [%] | Mean % [3] [%] | Inhibition 1 [4] | Inhibition 2 [4] | Inhibition 3 [4] | Mean % [4] | Inhibition 1 [5] [%] | further results
c1cn2cc(-c3ccc4cn[nH]c4c3)nc(Nc3ccc(N4CCOCC4)cc3)c2n1 [UNC10302678A, Entospletinib (GS-9973)] | -17.67 | -16.44 | -12.26 | -13.73 | -15.03 | 2.51 | -3 | -32.95 | 7.37 | -6.52 | 5.16 | 7.36 | -2.39 | 2.39 | 3.13 | -3.87% and -2.7% | -11.22% and -16.36% | -0.44% and -2.13% | 1.02% and -6.36% | -1.01 | Inhibition 2 [5]: -14.98%; Inhibition 3 [5]: -19.59%; Inhibition 4 [5]: -10.22%; Mean % [5]: -11.45%; Inhibition 1 [6]: 20.59%; Inhibition 2 [6]: 12.98%; Inhibition 3 [6]: 21.06%; Inhibition 4 [6]: 14.69%; Mean % [6]: 17.33%; Inhibition 1 [7]: -41.25%; Inhibition 2 [7]: -29.65%; Inhibition 3 [7]: -11.39%; Inhibition 4 [7]: -15.68%; Mean % [7]: -24.49%
Cl.NC(=O)c1cnc(N[C@@H]2CCCC[C@@H]2N)nc1Nc1cccc(-n2nccn2)c1 [UNC10302682A, P505-15 (PRT06207 HCl)] | -1.69 | 2.24 | -4.88 | 1.51 | -0.71 | 10.12 | 11.25 | 12.71 | 8.82 | 10.73 | 7.46 | 12.14 | 13.58 | 14.53 | 11.93 | 84.07% and 84.11% | 85.74% and 79.57% | 83.91% and 77.54% | 85.87% and 80.58% | 13.95 | Inhibition 4 [4]: 89.74%; Inhibition 2 [5]: 2.61%; Inhibition 3 [5]: 8.53%; Inhibition 4 [5]: 0.63%; Mean % [5]: 6.43%; Inhibition 1 [6]: 66.83%; Inhibition 2 [6]: 77.09%; Inhibition 3 [6]: 73.28%; Inhibition 4 [6]: 75.45%; Mean % [6]: 73.16%; Inhibition 1 [7]: -1.07%; Inhibition 2 [7]: -19.49%; Inhibition 3 [7]: -2.98%; Inhibition 4 [7]: -7.9%; Mean % [7]: -7.86%
